# Experimental data taken from patent US7632811B2, “Analogs of parathyroid hormone” (Societe de Conseils de Recherches et D'Applications …, priority 1995, dated 2009).
# Non-standard residues stand in square brackets, D forms with d. Residues, ends and D or L forms follow the SMILES beside them. hArg = N=C(N)NCCCC[C@H](N)C(=O)O; Cha = N[C@@H](CC1CCCCC1)C(=O)O; Nle = CCCC[C@H](N)C(=O)O; Dap = NC[C@H](N)C(=O)O; Aib = CC(C)(N)C(=O)O
# Target: T1, PTH receptor present on SaOS-2 (human osteosarcoma cells) (Homo sapiens, UniProt Q03431)
# T1 construct: host or cells: SaOS-2 human osteosarcoma cells (intact, confluent monolayers)
# T1 sequence (Q03431 27-593): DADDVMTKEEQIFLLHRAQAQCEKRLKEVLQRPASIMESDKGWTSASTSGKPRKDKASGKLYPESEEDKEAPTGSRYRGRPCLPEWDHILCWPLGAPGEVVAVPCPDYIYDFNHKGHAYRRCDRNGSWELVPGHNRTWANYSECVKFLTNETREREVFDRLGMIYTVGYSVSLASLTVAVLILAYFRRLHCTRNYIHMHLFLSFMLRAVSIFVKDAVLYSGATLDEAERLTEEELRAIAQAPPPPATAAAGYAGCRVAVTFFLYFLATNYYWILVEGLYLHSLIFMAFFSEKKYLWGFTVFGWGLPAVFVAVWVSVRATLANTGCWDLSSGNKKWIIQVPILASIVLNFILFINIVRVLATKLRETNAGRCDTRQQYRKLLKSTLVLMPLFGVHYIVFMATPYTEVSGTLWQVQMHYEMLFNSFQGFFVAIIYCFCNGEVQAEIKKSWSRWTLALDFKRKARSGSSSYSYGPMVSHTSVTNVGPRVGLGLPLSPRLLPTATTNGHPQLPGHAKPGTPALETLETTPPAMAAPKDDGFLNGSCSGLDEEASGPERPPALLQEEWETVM
# Assay: Binding to PTH receptor on SaOS-2 cells (competition with mono-125I-[Nle8,18,Tyr34(3-125I)]bPTH(1-34)NH2)
# Conditions: Table I, 2 hrs at room temperature, read-out: Kd (half maximal inhibition of binding of mono-125I-[Nle8,18, Tyr34(3-125I)]bPTH(1-34)NH2)
# Outline: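 Confluent SaOS-2 cells in 5% FBS RPMI were incubated 2 h at room temperature with 10×10^4 cpm mono-125I-[Nle8,18,Tyr34(3-125I)]bPTH(1-34)NH2 plus competing peptide at 10^−11 to 10^−4 M. After washing, cell-bound radioactivity was counted; Kd taken as half-maximal inhibition of tracer binding.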
row,SMILES,Kd [nM]
1,"CCCC[C@H](NC(=O)[C@H](CO)NC(=O)[C@H](CC(N)=O)NC(=O)[C@H](CC(C)C)NC(=O)[C@H](Cc1c[nH]cn1)NC(=O)[C@H](CCCCN)NC(=O)CNC(=O)[C@H](CC(C)C)NC(=O)[C@H](CC(N)=O)NC(=O)[C@H](Cc1c[nH]cn1)NC(=O)[C@H](CCCC)NC(=O)[C@H](CC(C)C)NC(=O)[C@H](CCC(N)=O)NC(=O)[C@@H](NC(=O)[C@H](CCC(=O)O)NC(=O)[C@H](CO)NC(=O)[C@@H](NC(=O)[C@@H](N)CN)C(C)C)[C@@H](C)CC)C(=O)N[C@@H](CCC(=O)O)C(=O)N[C@@H](CCCNC(=N)N)C(=O)N[C@H](C(=O)N[C@@H](CCC(=O)O)C(=O)N[C@@H](Cc1c[nH]c2ccccc12)C(=O)N[C@@H](CC(C)C)C(=O)N[C@@H](CCCNC(=N)N)C(=O)N[C@@H](CCCCN)C(=O)N[C@@H](CCCCN)C(=O)N[C@@H](CC(C)C)C(=O)N[C@@H](CCC(N)=O)C(=O)N[C@@H](CC(=O)O)C(=O)N[C@H](C(=O)N[C@@H](Cc1c[nH]cn1)C(=O)N[C@@H](CC(N)=O)C(=O)N[C@@H](Cc1ccc(O)cc1)C(N)=O)C(C)C)C(C)C [[Dap,Nle^8,18, Tyr^34]hPTH(1-34)NH2] (H-[Dap]VSEIQL[Nle]HNLGKHLNS[Nle]ERVEWLRKKLQDVHNY-NH2)",150
2,"CC[C@H](C)[C@H](NC(=O)[C@H](CCC(=O)O)NC(=O)[C@H](CO)NC(=O)[C@@H](NC(=O)[C@@H](N)CO)C(C)C)C(=O)N[C@@H](CCC(N)=O)C(=O)N[C@@H](CC1CCCCC1)C(=O)N[C@@H](CCSC)C(=O)N[C@@H](Cc1c[nH]cn1)C(=O)N[C@@H](CC(N)=O)C(=O)N[C@@H](CC1CCCCC1)C(=O)NCC(=O)N[C@@H](CCCCN)C(=O)N[C@@H](Cc1c[nH]cn1)C(=O)N[C@@H](CC(C)C)C(=O)N[C@@H](CC(N)=O)C(=O)N[C@@H](CO)C(=O)N[C@@H](CCSC)C(=O)N[C@@H](CCC(=O)O)C(=O)N[C@@H](CCCNC(=N)N)C(=O)N[C@H](C(=O)N[C@@H](CCC(=O)O)C(=O)N[C@@H](Cc1c[nH]c2ccccc12)C(=O)N[C@@H](CC(C)C)C(=O)N[C@@H](CCCNC(=N)N)C(=O)N[C@@H](CCCCN)C(=O)N[C@@H](CCCCN)C(=O)N[C@@H](CC(C)C)C(=O)N[C@@H](CCC(N)=O)C(=O)N[C@@H](CC(=O)O)C(=O)N[C@H](C(=O)N[C@@H](Cc1c[nH]cn1)C(=O)N[C@@H](CC(N)=O)C(=O)N[C@@H](Cc1ccccc1)C(N)=O)C(C)C)C(C)C [[Cha^7,11]hPTH(1-34)NH2] (H-SVSEIQ[Cha]MHN[Cha]GKHLNSMERVEWLRKKLQDVHNF-NH2)",10
3,CC[C@H](C)[C@H](NC(=O)[C@H](CCC(=O)O)NC(=O)[C@H](CO)NC(=O)[C@@H](NC(=O)[C@@H](N)CO)C(C)C)C(=O)N[C@@H](CCC(N)=O)C(=O)N[C@@H](CC(C)C)C(=O)N[C@@H](CCSC)C(=O)N[C@@H](Cc1c[nH]cn1)C(=O)N[C@@H](CC(N)=O)C(=O)N[C@@H](CC(C)C)C(=O)NCC(=O)N[C@@H](CCCCN)C(=O)N[C@@H](Cc1c[nH]cn1)C(=O)N[C@@H](CC(C)C)C(=O)N[C@@H](CC(N)=O)C(=O)N[C@@H](CO)C(=O)N[C@@H](CCSC)C(=O)N[C@@H](CCC(=O)O)C(=O)N[C@@H](CCCNC(=N)N)C(=O)N[C@H](C(=O)N[C@@H](CCC(=O)O)C(=O)N[C@@H](Cc1c[nH]c2ccccc12)C(=O)N[C@@H](CC(C)C)C(=O)N[C@@H](CCCNC(=N)N)C(=O)N[C@@H](CCCCN)C(=O)N[C@@H](CCCCNC(=N)N)C(=O)N[C@@H](CC(C)C)C(=O)N[C@@H](CCC(N)=O)C(=O)N[C@@H](CC(=O)O)C(=O)N[C@H](C(=O)N[C@@H](Cc1c[nH]cn1)C(=O)N[C@@H](CC(N)=O)C(=O)N[C@@H](Cc1ccccc1)C(N)=O)C(C)C)C(C)C [[hArg^27]hPTH(1-34)NH2] (H-SVSEIQLMHNLGKHLNSMERVEWLRK[hArg]LQDVHNF-NH2),7
4,CC[C@H](C)[C@H](NC(=O)[C@H](CCC(=O)O)NC(=O)[C@H](CO)NC(=O)[C@@H](NC(=O)[C@@H](N)CO)C(C)C)C(=O)N[C@@H](CCC(N)=O)C(=O)N[C@@H](CC(C)C)C(=O)N[C@@H](CCSC)C(=O)N[C@@H](Cc1c[nH]cn1)C(=O)N[C@@H](CC(N)=O)C(=O)N[C@@H](CC(C)C)C(=O)NC(C)(C)C(=O)N[C@@H](CCCCN)C(=O)N[C@@H](Cc1c[nH]cn1)C(=O)N[C@@H](CC(C)C)C(=O)N[C@@H](CC(N)=O)C(=O)N[C@@H](CO)C(=O)N[C@@H](CCSC)C(=O)N[C@@H](CCC(=O)O)C(=O)N[C@@H](CCCNC(=N)N)C(=O)N[C@H](C(=O)N[C@@H](CCC(=O)O)C(=O)N[C@@H](Cc1c[nH]c2ccccc12)C(=O)N[C@@H](CC(C)C)C(=O)N[C@@H](CCCNC(=N)N)C(=O)N[C@@H](CCCCN)C(=O)N[C@@H](CCCCN)C(=O)N[C@@H](CC(C)C)C(=O)N[C@@H](CCC(N)=O)C(=O)N[C@@H](CC(=O)O)C(=O)N[C@H](C(=O)N[C@@H](Cc1c[nH]cn1)C(=O)N[C@@H](CC(N)=O)C(=O)N[C@@H](Cc1ccccc1)C(N)=O)C(C)C)C(C)C [[Aib^12]hPTH(1-34)NH2] (H-SVSEIQLMHNL[Aib]KHLNSMERVEWLRKKLQDVHNF-NH2),5

# Continued by falling Kd, values first:
row,Kd [nM],SMILES
1,5,"CCCC[C@H](NC(=O)[C@H](CC1CCCCC1)NC(=O)[C@H](CCC(N)=O)NC(=O)[C@@H](NC(=O)[C@H](CCC(=O)O)NC(=O)[C@H](CO)NC(=O)[C@@H](NC(=O)[C@@H](N)CO)C(C)C)[C@@H](C)CC)C(=O)N[C@@H](Cc1c[nH]cn1)C(=O)N[C@@H](CC(N)=O)C(=O)N[C@@H](CC1CCCCC1)C(=O)NCC(=O)N[C@@H](CCCCN)C(=O)N[C@@H](Cc1c[nH]cn1)C(=O)N[C@@H](CC(C)C)C(=O)NC(C)(C)C(=O)N[C@@H](CO)C(=O)N[C@@H](CCCC)C(=O)NC(C)(C)C(=O)N[C@@H](CCCNC(=N)N)C(=O)N[C@H](C(=O)N[C@@H](CCC(=O)O)C(=O)N[C@@H](Cc1c[nH]c2ccccc12)C(=O)N[C@@H](CC(C)C)C(=O)N[C@@H](CCCNC(=N)N)C(=O)N[C@@H](CCCCN)C(=O)N[C@@H](CCCCN)C(=O)N[C@@H](CC(C)C)C(=O)N[C@@H](CCC(N)=O)C(=O)N[C@@H](CC(=O)O)C(=O)N[C@H](C(=O)N[C@@H](Cc1c[nH]cn1)C(=O)N[C@@H](CC(N)=O)C(=O)N[C@@H](Cc1ccc(O)cc1)C(N)=O)C(C)C)C(C)C [[Cha^7,11, Nle^8,18, Aib^16,19, Tyr^34]hPTH (1-34)NH2] (H-SVSEIQ[Cha][Nle]HN[Cha]GKHL[Aib]S[Nle][Aib]RVEWLRKKLQDVHNY-NH2)"
2,4,"CC[C@H](C)[C@H](NC(=O)[C@H](CCC(=O)O)NC(=O)[C@H](CO)NC(=O)[C@@H](NC(=O)[C@@H](N)CO)C(C)C)C(=O)N[C@@H](CCC(N)=O)C(=O)N[C@@H](CC(C)C)C(=O)N[C@@H](CCSC)C(=O)N[C@@H](Cc1c[nH]cn1)C(=O)N[C@@H](CC(N)=O)C(=O)N[C@@H](CC(C)C)C(=O)NCC(=O)N[C@@H](CCCCN)C(=O)N[C@@H](Cc1c[nH]cn1)C(=O)N[C@@H](CC(C)C)C(=O)NC(C)(C)C(=O)N[C@@H](CO)C(=O)N[C@@H](CCSC)C(=O)NC(C)(C)C(=O)N[C@@H](CCCNC(=N)N)C(=O)N[C@H](C(=O)N[C@@H](CCC(=O)O)C(=O)N[C@@H](Cc1c[nH]c2ccccc12)C(=O)N[C@@H](CC(C)C)C(=O)N[C@@H](CCCNC(=N)N)C(=O)N[C@@H](CCCCN)C(=O)N[C@@H](CCCCN)C(=O)N[C@@H](CC(C)C)C(=O)N[C@@H](CCC(N)=O)C(=O)N[C@@H](CC(=O)O)C(=O)N[C@H](C(=O)N[C@@H](Cc1c[nH]cn1)C(=O)N[C@@H](CC(N)=O)C(=O)N[C@@H](Cc1ccccc1)C(N)=O)C(C)C)C(C)C [[Aib^16,19]hPTH(1-34)NH2] (H-SVSEIQLMHNLGKHL[Aib]SM[Aib]RVEWLRKKLQDVHNF-NH2)"
